Test results taken from ChEMBL document CHEMBL4507297, “Data for DCP probe PF-04457845” (2021).

What was measured:
[1] = target: Rhodopsin kinase GRK1 (Homo sapiens) (UniProt Q15835); conditions: Compound concentration 1000.0 nM
[2] = target: Receptor-interacting serine/threonine-protein kinase 1 (Homo sapiens) (UniProt Q13546); conditions: Compound concentration 1000.0 nM
[3] = target: Ankyrin repeat and protein kinase domain-containing protein 1 (Homo sapiens) (UniProt Q8NFD2); conditions: Compound concentration 1000.0 nM
[4] = target: Inhibitor of nuclear factor kappa-B kinase subunit epsilon (Homo sapiens) (UniProt Q14164); conditions: Compound concentration 1000.0 nM
[5] = target: Ribosomal protein S6 kinase alpha-2 (Homo sapiens) (UniProt Q15349); conditions: Compound concentration 1000.0 nM
[6] = target: Serine/threonine-protein kinase 38-like (Homo sapiens) (UniProt Q9Y2H1); conditions: Compound concentration 1000.0 nM
[7] = target: Macrophage colony-stimulating factor 1 receptor (Homo sapiens) (UniProt P07333); conditions: Compound concentration 1000.0 nM
[8] = target: Serine/threonine-protein kinase WNK1 (Homo sapiens) (UniProt Q9H4A3); conditions: Compound concentration 1000.0 nM
[9] = system: Receptor-type tyrosine-protein kinase FLT3 (Homo sapiens), P36888 [UNDEFINED MUTATION]; conditions: Compound concentration 1000.0 nM
[10] = target: Ephrin type-B receptor 4 (Homo sapiens) (UniProt P54760); conditions: Compound concentration 1000.0 nM
[11] = target: Casein kinase I isoform delta (Homo sapiens) (UniProt P48730); conditions: Compound concentration 1000.0 nM
[12] = target: Proto-oncogene tyrosine-protein kinase Src (Homo sapiens) (UniProt P12931); conditions: Compound concentration 1000.0 nM
[13] = target: Aurora kinase B (Homo sapiens) (UniProt Q96GD4); conditions: Compound concentration 1000.0 nM
[14] = target: Cyclin-dependent kinase-like 1 (Homo sapiens) (UniProt Q00532); conditions: Compound concentration 1000.0 nM
[15] = target: Serine/threonine-protein kinase TAO3 (Homo sapiens) (UniProt Q9H2K8); conditions: Compound concentration 1000.0 nM
[16] = target: Cyclin-dependent kinase 9 (Homo sapiens) (UniProt P50750); conditions: Compound concentration 1000.0 nM
[17] = target: Mitotic checkpoint serine/threonine-protein kinase BUB1 (Homo sapiens) (UniProt O43683); conditions: Compound concentration 1000.0 nM
[18] = target: MAP kinase-activated protein kinase 5 (Homo sapiens) (UniProt Q8IW41); conditions: Compound concentration 1000.0 nM
[19] = target: Transient receptor potential cation channel subfamily M member 6 (Homo sapiens) (UniProt Q9BX84); conditions: Compound concentration 1000.0 nM
[20] = target: Wee1-like protein kinase (Homo sapiens) (UniProt P30291); conditions: Compound concentration 1000.0 nM
[21] = target: 5-hydroxytryptamine receptor 1B (Homo sapiens) (UniProt P28222); conditions: Compound concentration 10.0 uM
[22] = target: Ephrin type-A receptor 7 (Homo sapiens) (UniProt Q15375); conditions: Compound concentration 1000.0 nM
[23] = system: Hepatocyte growth factor receptor (Homo sapiens), P08581 [Y1235D]; conditions: Compound concentration 1000.0 nM
[24] = target: Serine/threonine-protein kinase NLK (Homo sapiens) (UniProt Q9UBE8); conditions: Compound concentration 1000.0 nM
[25] = target: Beta-adrenergic receptor kinase 1 (Homo sapiens) (UniProt P25098); conditions: Compound concentration 1000.0 nM
[26] = target: Cyclin-dependent kinase 15 (Homo sapiens) (UniProt Q96Q40); conditions: Compound concentration 1000.0 nM
[27] = target: Cyclin-dependent kinase 4 (Homo sapiens) (UniProt P11802); conditions: Compound concentration 1000.0 nM
[28] = target: Casein kinase I isoform gamma-3 (Homo sapiens) (UniProt Q9Y6M4); conditions: Compound concentration 1000.0 nM
[29] = target: Tyrosine-protein kinase JAK3 (Homo sapiens) (UniProt P52333); conditions: Compound concentration 1000.0 nM
[30] = target: Mitogen-activated protein kinase kinase kinase kinase 5 (Homo sapiens) (UniProt Q9Y4K4); conditions: Compound concentration 1000.0 nM
[31] = target: Serine/threonine-protein kinase Nek10 (Homo sapiens) (UniProt Q6ZWH5); conditions: Compound concentration 1000.0 nM
[32] = target: Tyrosine-protein kinase BTK (Homo sapiens) (UniProt Q06187); conditions: Compound concentration 1000.0 nM
[33] = target: Homeodomain-interacting protein kinase 3 (Homo sapiens) (UniProt Q9H422); conditions: Compound concentration 1000.0 nM
[34] = target: Dual specificity mitogen-activated protein kinase kinase 5 (Homo sapiens) (UniProt Q13163); conditions: Compound concentration 1000.0 nM
[35] = system: Phosphatidylinositol 4,5-bisphosphate 3-kinase catalytic subunit alpha isoform (Homo sapiens), P42336 [H1047L]; conditions: Compound concentration 1000.0 nM
[36] = system: Epidermal growth factor receptor (Homo sapiens), P00533 [UNDEFINED MUTATION]; conditions: Compound concentration 1000.0 nM
[37] = target: Mitogen-activated protein kinase kinase kinase 13 (Homo sapiens) (UniProt O43283); conditions: Compound concentration 1000.0 nM
[38] = target: Serine/threonine-protein kinase D2 (Homo sapiens) (UniProt Q9BZL6); conditions: Compound concentration 1000.0 nM
[39] = target: Serine/threonine-protein kinase Nek6 (Homo sapiens) (UniProt Q9HC98); conditions: Compound concentration 1000.0 nM
[40] = target: Mitogen-activated protein kinase 12 (Homo sapiens) (UniProt P53778); conditions: Compound concentration 1000.0 nM
[41] = system: Epidermal growth factor receptor (Homo sapiens), P00533 [G719C]; conditions: Compound concentration 1000.0 nM
[42] = target: Mitogen-activated protein kinase 1 (Homo sapiens) (UniProt P28482); conditions: Compound concentration 1000.0 nM
[43] = target: Serine/threonine-protein kinase VRK2 (Homo sapiens) (UniProt Q86Y07); conditions: Compound concentration 1000.0 nM
[44] = target: Myosin-IIIa (Homo sapiens) (UniProt Q8NEV4); conditions: Compound concentration 1000.0 nM
[45] = target: Cyclin-dependent kinase-like 3 (Homo sapiens) (UniProt Q8IVW4); conditions: Compound concentration 1000.0 nM

Phosphatidylinositol 4,5-bisphosphate 3-kinase catalytic subunit alpha isoform (Homo sapiens), P42336 [H1047L], sequence (P42336 whole entry H1047L, canonical isoform): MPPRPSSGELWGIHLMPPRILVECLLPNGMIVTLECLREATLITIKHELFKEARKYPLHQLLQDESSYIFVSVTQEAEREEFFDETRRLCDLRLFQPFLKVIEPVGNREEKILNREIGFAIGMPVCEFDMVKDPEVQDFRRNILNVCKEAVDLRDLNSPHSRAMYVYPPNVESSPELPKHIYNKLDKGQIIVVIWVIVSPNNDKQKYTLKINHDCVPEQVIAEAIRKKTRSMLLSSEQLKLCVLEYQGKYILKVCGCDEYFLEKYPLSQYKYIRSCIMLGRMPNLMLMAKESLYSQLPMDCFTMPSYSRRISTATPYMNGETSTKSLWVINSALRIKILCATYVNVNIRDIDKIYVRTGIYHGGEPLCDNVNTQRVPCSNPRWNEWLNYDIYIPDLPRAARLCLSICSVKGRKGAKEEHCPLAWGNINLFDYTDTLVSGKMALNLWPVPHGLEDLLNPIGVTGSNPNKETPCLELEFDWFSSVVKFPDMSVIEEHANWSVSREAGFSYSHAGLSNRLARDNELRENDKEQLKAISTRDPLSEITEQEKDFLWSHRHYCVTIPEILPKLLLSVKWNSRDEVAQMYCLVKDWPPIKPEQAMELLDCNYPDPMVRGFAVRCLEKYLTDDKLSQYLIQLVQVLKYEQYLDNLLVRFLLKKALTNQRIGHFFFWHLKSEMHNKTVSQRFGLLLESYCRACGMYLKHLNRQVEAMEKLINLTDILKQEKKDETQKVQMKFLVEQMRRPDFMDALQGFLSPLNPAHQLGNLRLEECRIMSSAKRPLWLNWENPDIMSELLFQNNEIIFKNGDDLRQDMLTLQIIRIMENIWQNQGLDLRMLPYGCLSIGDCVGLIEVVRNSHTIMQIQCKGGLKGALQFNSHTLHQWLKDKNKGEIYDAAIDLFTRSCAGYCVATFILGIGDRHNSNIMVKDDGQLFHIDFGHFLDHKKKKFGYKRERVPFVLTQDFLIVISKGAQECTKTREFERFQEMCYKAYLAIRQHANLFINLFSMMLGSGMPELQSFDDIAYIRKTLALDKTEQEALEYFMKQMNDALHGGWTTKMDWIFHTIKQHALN
Serine/threonine-protein kinase D2 (Homo sapiens), sequence (Q9BZL6 whole entry): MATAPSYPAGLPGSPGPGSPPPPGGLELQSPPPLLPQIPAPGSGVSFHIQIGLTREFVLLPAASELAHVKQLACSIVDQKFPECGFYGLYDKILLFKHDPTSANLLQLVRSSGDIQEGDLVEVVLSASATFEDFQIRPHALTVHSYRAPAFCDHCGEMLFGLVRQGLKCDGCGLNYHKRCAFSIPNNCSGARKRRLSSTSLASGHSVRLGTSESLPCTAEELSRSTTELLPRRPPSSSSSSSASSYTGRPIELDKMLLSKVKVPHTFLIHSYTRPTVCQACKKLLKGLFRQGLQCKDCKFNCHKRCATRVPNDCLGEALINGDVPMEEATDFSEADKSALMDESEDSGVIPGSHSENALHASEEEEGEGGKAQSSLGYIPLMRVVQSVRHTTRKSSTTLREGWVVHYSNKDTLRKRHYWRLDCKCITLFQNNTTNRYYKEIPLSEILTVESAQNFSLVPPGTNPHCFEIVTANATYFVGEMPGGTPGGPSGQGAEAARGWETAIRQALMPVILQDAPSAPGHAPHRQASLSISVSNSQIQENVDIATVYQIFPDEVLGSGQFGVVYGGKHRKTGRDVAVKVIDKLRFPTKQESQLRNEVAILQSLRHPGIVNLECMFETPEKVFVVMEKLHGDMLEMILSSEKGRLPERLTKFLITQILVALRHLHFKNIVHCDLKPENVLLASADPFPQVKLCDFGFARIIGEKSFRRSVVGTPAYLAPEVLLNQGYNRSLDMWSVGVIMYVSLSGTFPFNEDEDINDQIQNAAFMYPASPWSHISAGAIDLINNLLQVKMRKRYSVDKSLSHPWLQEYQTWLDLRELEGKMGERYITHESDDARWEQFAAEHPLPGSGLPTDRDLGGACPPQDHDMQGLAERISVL
Myosin-IIIa (Homo sapiens), sequence (Q8NEV4 whole entry): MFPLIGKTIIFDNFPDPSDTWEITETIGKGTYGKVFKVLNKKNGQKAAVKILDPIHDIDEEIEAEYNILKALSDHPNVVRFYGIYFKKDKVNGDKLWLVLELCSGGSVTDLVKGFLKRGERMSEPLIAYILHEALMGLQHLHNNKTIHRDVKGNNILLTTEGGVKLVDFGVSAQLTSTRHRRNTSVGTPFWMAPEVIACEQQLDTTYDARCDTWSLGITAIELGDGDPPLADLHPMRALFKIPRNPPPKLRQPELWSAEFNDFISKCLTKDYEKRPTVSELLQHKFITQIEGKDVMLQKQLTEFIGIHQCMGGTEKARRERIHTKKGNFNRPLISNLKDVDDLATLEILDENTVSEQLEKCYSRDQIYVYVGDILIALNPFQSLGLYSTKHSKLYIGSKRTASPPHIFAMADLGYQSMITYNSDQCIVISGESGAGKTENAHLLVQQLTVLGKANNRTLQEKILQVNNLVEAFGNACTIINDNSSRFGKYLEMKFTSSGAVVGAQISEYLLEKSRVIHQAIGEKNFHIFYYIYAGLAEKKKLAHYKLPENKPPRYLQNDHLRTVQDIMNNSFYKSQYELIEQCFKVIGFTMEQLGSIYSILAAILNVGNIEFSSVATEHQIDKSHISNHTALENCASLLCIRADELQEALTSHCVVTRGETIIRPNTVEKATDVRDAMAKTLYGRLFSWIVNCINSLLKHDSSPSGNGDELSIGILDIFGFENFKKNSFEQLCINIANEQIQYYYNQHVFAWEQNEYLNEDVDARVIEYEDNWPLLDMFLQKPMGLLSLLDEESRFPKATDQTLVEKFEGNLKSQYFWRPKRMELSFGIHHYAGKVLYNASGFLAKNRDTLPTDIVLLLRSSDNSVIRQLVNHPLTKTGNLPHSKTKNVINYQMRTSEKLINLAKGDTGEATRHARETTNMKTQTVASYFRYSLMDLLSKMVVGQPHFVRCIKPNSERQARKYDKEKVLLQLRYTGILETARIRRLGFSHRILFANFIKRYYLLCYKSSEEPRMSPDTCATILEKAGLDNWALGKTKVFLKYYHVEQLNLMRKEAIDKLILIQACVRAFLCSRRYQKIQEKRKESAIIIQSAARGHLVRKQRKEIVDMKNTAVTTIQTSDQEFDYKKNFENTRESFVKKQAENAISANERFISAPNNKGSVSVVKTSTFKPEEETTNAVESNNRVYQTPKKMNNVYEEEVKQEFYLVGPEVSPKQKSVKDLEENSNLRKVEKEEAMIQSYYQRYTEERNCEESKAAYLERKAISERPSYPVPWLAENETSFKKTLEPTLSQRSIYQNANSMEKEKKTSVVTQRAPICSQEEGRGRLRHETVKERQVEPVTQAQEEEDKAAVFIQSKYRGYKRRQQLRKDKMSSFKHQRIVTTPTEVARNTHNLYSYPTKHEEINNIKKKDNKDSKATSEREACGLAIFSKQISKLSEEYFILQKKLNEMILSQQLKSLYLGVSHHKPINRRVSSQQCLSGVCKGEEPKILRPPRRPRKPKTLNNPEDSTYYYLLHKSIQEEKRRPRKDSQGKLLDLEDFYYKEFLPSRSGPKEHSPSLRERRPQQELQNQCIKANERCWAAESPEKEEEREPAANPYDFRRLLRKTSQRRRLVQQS
Serine/threonine-protein kinase Nek6 (Homo sapiens), sequence (Q9HC98 whole entry): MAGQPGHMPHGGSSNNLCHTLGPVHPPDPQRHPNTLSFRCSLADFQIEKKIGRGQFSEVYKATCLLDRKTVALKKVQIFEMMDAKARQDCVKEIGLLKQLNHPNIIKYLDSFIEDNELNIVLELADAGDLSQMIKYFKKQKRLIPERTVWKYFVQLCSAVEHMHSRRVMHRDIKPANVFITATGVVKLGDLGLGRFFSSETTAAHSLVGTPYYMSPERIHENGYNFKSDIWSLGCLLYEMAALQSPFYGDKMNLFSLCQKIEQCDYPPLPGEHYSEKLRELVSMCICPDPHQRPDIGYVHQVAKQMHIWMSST
Macrophage colony-stimulating factor 1 receptor (Homo sapiens), sequence (P07333 whole entry): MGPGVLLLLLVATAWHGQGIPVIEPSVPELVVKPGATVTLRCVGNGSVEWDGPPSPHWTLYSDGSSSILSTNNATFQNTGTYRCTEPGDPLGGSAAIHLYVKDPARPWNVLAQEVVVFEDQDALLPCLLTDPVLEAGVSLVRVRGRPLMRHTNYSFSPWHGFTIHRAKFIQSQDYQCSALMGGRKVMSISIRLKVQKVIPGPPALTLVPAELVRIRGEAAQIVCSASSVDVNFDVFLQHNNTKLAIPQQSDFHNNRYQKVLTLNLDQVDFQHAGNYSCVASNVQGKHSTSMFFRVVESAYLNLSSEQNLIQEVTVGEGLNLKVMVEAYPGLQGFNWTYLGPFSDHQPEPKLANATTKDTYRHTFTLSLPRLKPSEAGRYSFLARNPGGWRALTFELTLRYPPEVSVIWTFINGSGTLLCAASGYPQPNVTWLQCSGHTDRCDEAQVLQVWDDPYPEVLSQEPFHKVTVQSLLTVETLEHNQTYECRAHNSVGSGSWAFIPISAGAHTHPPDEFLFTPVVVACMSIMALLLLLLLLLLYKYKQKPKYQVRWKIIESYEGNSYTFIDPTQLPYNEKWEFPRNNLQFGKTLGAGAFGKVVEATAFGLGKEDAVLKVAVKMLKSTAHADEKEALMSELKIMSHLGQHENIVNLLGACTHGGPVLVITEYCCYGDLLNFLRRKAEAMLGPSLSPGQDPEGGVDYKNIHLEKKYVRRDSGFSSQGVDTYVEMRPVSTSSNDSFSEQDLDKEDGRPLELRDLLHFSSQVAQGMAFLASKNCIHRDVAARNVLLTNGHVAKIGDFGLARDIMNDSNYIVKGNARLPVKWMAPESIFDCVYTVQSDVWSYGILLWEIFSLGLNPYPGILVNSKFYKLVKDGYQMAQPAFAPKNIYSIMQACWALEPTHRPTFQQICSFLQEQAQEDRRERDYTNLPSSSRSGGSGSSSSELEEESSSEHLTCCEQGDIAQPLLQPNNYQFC

SMILES: O=C(Nc1cccnn1)N1CCC(=Cc2cccc(Oc3ccc(C(F)(F)F)cn3)c2)CC1
- residual activity [1]: 89%
- residual activity [2]: 97%
- residual activity [3]: 96%
- residual activity [4]: 100%
- residual activity [5]: 80%
- residual activity [6]: 84%
- residual activity [7]: 100%
- residual activity [8]: 100%
- residual activity [9]: 100%
- residual activity [10]: 69%
- residual activity [11]: 100%
- residual activity [12]: 88%
- residual activity [13]: 100%
- residual activity [14]: 86%
- residual activity [15]: 42%
- residual activity [16]: 93%
- residual activity [17]: 100%
- residual activity [18]: 100%
- residual activity [19]: 98%
- residual activity [20]: 97%
- inhibition [21]: 24.4%
- residual activity [22]: 95%
- residual activity [23]: 100%
- residual activity [24]: 100%
- residual activity [25]: 100%
- residual activity [26]: 100%
- residual activity [27]: 100%
- residual activity [28]: 100%
- residual activity [29]: 100%
- residual activity [30]: 100%
- residual activity [31]: 100%
- residual activity [32]: 100%
- residual activity [33]: 100%
- residual activity [34]: 100%
- residual activity [35]: 100%
- residual activity [36]: 68%
- residual activity [37]: 100%
- residual activity [38]: 94%
- residual activity [39]: 100%
- residual activity [40]: 100%
- residual activity [41]: 100%
- residual activity [42]: 92%
- residual activity [43]: 100%
- residual activity [44]: 100%
- residual activity [45]: 81%

SMILES: O=C(Nc1cccnn1)N1CC(C/C=C/c2cncc(Oc3ccc(C(F)(F)F)cn3)n2)C1
- residual activity [1]: 82%
- residual activity [2]: 100%
- residual activity [3]: 73%
- residual activity [4]: 77%
- residual activity [5]: 100%
- residual activity [6]: 100%
- residual activity [7]: 87%
- residual activity [8]: 100%
- residual activity [9]: 100%
- residual activity [10]: 100%
- residual activity [11]: 100%
- residual activity [12]: 100%
- residual activity [13]: 59%
- residual activity [14]: 100%
- residual activity [15]: 82%
- residual activity [16]: 100%
- residual activity [17]: 1.4%
- residual activity [18]: 76%
- residual activity [19]: 73%
- residual activity [20]: 100%
- inhibition [21]: 4.8%
- residual activity [22]: 100%
- residual activity [23]: 100%
- residual activity [24]: 100%
- residual activity [25]: 96%
- residual activity [26]: 100%
- residual activity [27]: 86%
- residual activity [28]: 100%
- residual activity [29]: 100%
- residual activity [30]: 94%
- residual activity [31]: 100%
- residual activity [32]: 59%
- residual activity [33]: 74%
- residual activity [34]: 88%
- residual activity [35]: 100%
- residual activity [36]: 100%
- residual activity [37]: 0%
- residual activity [38]: 100%
- residual activity [39]: 100%
- residual activity [40]: 100%
- residual activity [41]: 100%
- residual activity [42]: 100%
- residual activity [43]: 97%
- residual activity [44]: 100%
- residual activity [45]: 95%
